Test results reported in patent US20230295109A1, “PYRIDINONE COMPOUNDS FOR THE TREATMENT OF AUTOIMMUNE DISEASE” (F. Hoffmann-La Roche AG, priority 2020, published 2023).

Biological target: T1, human TLR8 (Homo sapiens, UniProt Q9NR97)
T1 construct: host or cells: HEK293 (HEK-Blue hTLR8)
T1 sequence (Q9NR97 27-1041): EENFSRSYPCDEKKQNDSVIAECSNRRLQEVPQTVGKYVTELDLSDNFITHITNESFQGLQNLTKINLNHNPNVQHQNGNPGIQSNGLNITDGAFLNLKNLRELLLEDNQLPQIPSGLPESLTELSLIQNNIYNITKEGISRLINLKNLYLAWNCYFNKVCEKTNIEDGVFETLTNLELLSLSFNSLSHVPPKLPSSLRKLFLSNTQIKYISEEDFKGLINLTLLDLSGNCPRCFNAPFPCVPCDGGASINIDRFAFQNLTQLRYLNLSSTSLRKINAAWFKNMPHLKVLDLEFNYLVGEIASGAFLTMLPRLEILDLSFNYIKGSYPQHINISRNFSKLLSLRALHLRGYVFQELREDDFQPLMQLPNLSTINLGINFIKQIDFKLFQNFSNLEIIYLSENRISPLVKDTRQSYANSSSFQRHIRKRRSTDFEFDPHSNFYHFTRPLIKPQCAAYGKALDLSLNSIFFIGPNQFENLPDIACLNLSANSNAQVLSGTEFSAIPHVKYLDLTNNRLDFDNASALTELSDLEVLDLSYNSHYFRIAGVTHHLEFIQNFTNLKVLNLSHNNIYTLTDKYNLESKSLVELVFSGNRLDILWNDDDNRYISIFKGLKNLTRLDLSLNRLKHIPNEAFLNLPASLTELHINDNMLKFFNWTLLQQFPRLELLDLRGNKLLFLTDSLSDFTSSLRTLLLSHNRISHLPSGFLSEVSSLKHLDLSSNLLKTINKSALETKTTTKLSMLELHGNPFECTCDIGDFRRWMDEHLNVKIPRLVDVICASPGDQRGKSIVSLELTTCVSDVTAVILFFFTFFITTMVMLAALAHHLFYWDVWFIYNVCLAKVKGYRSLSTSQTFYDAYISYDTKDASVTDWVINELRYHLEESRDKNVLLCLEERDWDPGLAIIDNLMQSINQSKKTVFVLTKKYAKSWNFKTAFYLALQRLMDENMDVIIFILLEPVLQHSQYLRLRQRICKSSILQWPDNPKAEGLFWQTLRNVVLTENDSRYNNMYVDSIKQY
Assay: HEK293-Blue-hTLR-8 cells assay
Assay type: cell-based
Details: HEK293-Blue-hTLR8 cells, R848 stimulation, 20 hrs, SEAP reporter; read-out: HEK/hTLR8 IC50
Source text: A stable HEK293-Blue-hTLR-8 cell line was purchased from InvivoGen (Cat.#: hkb-htlr8, San Diego, California, USA). These cells were originally designed for studying the stimulation of human TLR8 by monitoring the activation of NF-κB. A SEAP (secreted embryonic alkaline phosphatase) reporter gene was placed under the control of the IFN-β minimal promoter fused to five NF-κB and AP-1-binding sites. The SEAP was induced by activating NF-κB and AP-1 via stimulating HEK-Blue hTLR8 cells with TLR8 ligands. Therefore the reporter expression was declined by TLR8 antagonist under the stimulation of a ligand, such as R848, for incubation of 20 hrs. The cell culture supernatant SEAP reporter activity was determined using QUANTI-Blue™ kit (Cat.#: rep-qb1, Invivogen, San Diego, Ca, USA) at a wavelength of 640 nm, a detection medium that turns purple or blue in the presence of alkaline phosphatase.
HEK293-Blue-hTLR8 cells were incubated at a density of 250,000~450,000 cells/mL in a volume of 170 µL in a 96-well plate in Dulbecco’s Modified Eagle’s medium (DMEM) containing 4.5 g/L glucose, 50 U/mL penicillin, […], […], 2 mM L-glutamine, 10% (v/v) heat-inactivated fetal bovine serum with addition of 20 µL test compound in a serial dilution in the presence of final DMSO at 1% and 10 µL of 60uM R848 in above DMEM, perform incubation under 37° C. in a CO2 incubator for 20 hrs. Then 20 µL of the supernatant from each well was incubated with 180 µL Quanti-blue substrate solution at 37° C. for 2 hrs and the absorbance was read at 620 \~655 nm using a spectrophotometer. The signaling pathway that TLR8 activation leads to downstream NF-κB activation has been widely accepted, and therefore similar reporter assay was modified for evaluating TLR8 antagonist.

IC50 [nM] | Structure (SMILES)
0.7 | CCc1nc(N2CCN(Cc3cnc(N4CC5(CNCCO5)C4)nc3)CC2)ccc1-c1cc(C)c(=O)n(C)c1 [Example 1, 5-[2-ethyl-6-[4-[[2-(5-oxa-2,8-diazaspiro[3.5]nonan-2-yl)pyrimidin-5-yl]methyl]piperazin-1-yl]-3-pyridyl]-1,3-dimethyl-pyridin-2-one]
0.3 | CCc1nc(N2CCN(Cc3ccc(N4CC5(CNCCO5)C4)nc3)CC2)ccc1-c1cc(C)c(=O)n(C)c1 [Example 2, 5-[2-ethyl-6-[4-[[6-(5-oxa-2,8-diazaspiro[3.5]nonan-2-yl)-3 pyridyl]methyl]piperazin-1-yl]-3-pyridyl]-1,3-dimethyl-pyridin-2-one]
0.3 | CCc1nc(N2CCN(Cc3cnc(N4CC(C)(N)C4)nc3)CC2)ccc1-c1cc(C)c(=O)n(C)c1 [Example 3, 5-[6-[4-[[2-(3-amino-3-methyl-azetidin-1-yl)pyrimidin-5-yl]methyl]piperazin-1-yl]-2-ethyl-3-pyridyl]-1,3-dimethyl-pyridin-2-one]
0.6 | CCc1nc(N2CCN(Cc3cnc(N4CCOC[C@@H](N)C4)nc3)CC2)ccc1-c1cc(C)c(=O)n(C)c1 [Example 4, 5-[6-[4-[[2-[(6S)-6-amino-1,4-oxazepan-4-yl]pyrimidin-5-yl]methyl]piperazin-1-yl]-2-ethyl-3-pyridyl]-1,3-dimethyl-pyridin-2-one]
0.3 | CCc1nc(N2CCN(Cc3ccc(N4CCNCC4)cc3)CC2)ccc1-c1cc(C)c(=O)n(C)c1 [Example 5, 5-[2-ethyl-6-[4-[(4-piperazin-1-ylphenyl)methyl]piperazin-1-yl]-3-pyridyl]-1,3-dimethyl-pyridin-2-one]
0.3 | Cc1cc(-c2ccc(N3CCN(Cc4cnc(N5CC6(CNCCO6)C5)nc4)CC3)nc2C(C)C)cn(C)c1=O [Example 6, 5-[2-isopropyl-6-[4-[[2-(5-oxa-2,8-diazaspiro[3.5]nonan-2-yl)pyrimidin-5-yl]methyl]piperazin-1-yl]-3-pyridyl]-1,3-dimethyl-pyridin-2-one]
0.3 | Cc1cc(-c2ccc(N3CCN(Cc4ccc(N5CCNCC5)cn4)CC3)nc2C(C)C)cn(C)c1=O [Example 7, 5-[2-isopropyl-6-[4-[(5-piperazin-1-yl-2-pyridyl)methyl]piperazin-1-yl]-3-pyridyl]-1,3-dimethyl-pyridin-2-one]
0.3 | Cc1cc(-c2ccc(N3CCN(Cc4cnc(N5CCNCC5)cn4)CC3)nc2C(C)C)cn(C)c1=O [Example 8, 5-[2-isopropyl-6-[4-[(5-piperazin-1-ylpyrazin-2-yl)methyl]piperazin-1-yl]-3-pyridyl]-1,3-dimethyl-pyridin-2-one]
0.3 | Cc1cc(-c2ccc(N3CCN(Cc4cnc(N5CCNCC5)nc4)CC3)nc2C(C)C)cn(C)c1=O [Example 9, 5-[2-isopropyl-6-[4-[(2-piperazin-1-ylpyrimidin-5-yl)methyl]piperazin-1-yl]-3-pyridyl]-1,3-dimethyl-pyridin-2-one]
0.3 | Cc1cc(-c2ccc(N3CCN(Cc4cnc(N5CC(C)(N)C5)nc4)CC3)nc2C(C)C)cn(C)c1=O [Example 10, 5-[6-[4-[[2-(3-amino-3-methyl-azetidin-1-yl)pyrimidin-5-yl]methyl]piperazin-1-yl]-2-isopropyl-3-pyridyl]-1,3-dimethyl-pyridin-2-one]
0.3 | Cc1cc(-c2ccc(N3CCN(Cc4ccc(N5CCNCC5)nc4)CC3)nc2C(C)C)cn(C)c1=O [Example 11, 5-[2-isopropyl-6-[4-[(6-piperazin-1-yl-3-pyridyl)methyl]piperazin-1-yl]-3-pyridyl]-1,3-dimethyl-pyridin-2-one]
0.7 | Cc1cc(-c2ccc(N3CCN(Cc4ncc(N5CCNCC5)cn4)CC3)nc2C(C)C)cn(C)c1=O [Example 12, 5-[2-isopropyl-6-[4-[(5-piperazin-1-ylpyrimidin-2-yl)methyl]piperazin-1-yl]-3-pyridyl]-1,3-dimethyl-pyridin-2-one]
0.3 | Cc1cc(-c2ccc(N3CCN(Cc4ccc(N5CCNCC5)cc4)CC3)nc2C(C)C)cn(C)c1=O [Example 13, 5-[2-isopropyl-6-[4-[(4-piperazin-1-ylphenyl)methyl]piperazin-1-yl]-3-pyridyl]-1,3-dimethyl-pyridin-2-one]
0.3 | Cc1cc(-c2ccc(N3CCN(Cc4cccc(N5CCNCC5)c4)CC3)nc2C(C)C)cn(C)c1=O [Example 14, 5-[2-isopropyl-6-[4-[(3-piperazin-1-ylphenyl)methyl]piperazin-1-yl]-3-pyridyl]-1,3-dimethyl-pyridin-2-one]
2 | Cc1cc(-c2ccc(N3CCN(c4ccc5c(n4)CCNC5)CC3)nc2C(C)C)cn(C)c1=O [Example 15, 5-[2-isopropyl-6-[4-(5,6,7,8-tetrahydro-1,6-naphthyridin-2-yl)piperazin-1-yl]-3-pyridyl]-1,3-dimethyl-pyridin-2-one]
2 | Cc1cc(-c2ccc(N3CCN4CCN(c5ccc(N6CCNCC6)nc5)CC4C3)nc2C(C)C)cn(C)c1=O (stereo not shown) [Example 16, 5-[2-isopropyl-6-[8-(6-piperazin-1-yl-3-pyridyl)-3,4,6,7,9,9a-hexahydro-1H-pyrazino[1,2-a]pyrazin-2-yl]-3-pyridyl]-1,3-dimethyl-pyridin-2-one]
0.3 | Cc1cc(-c2ccc(N3CCN(Cc4ccc(N5CCNCC5)cc4)CC3)nc2C(F)F)cn(C)c1=O [Example 17, 5-[2-(difluoromethyl)-6-[4-[(4-piperazin-1-ylphenyl)methyl]piperazin-1-yl]-3-pyridyl]-1,3-dimethyl-pyridin-2-one]
0.8 | Cc1cc(-c2ccc(N3CCC(N4CCNCC4)CC3)nc2C(C)C)cn(C)c1=O [Example 18, 5-[2-isopropyl-6-(4-piperazin-1-yl-1-piperidyl)-3-pyridyl]-1,3-dimethyl-pyridin-2-one]
5.9 | CCc1nc(N2CCN3CCN(c4cnc(N5CC6(CNCCO6)C5)nc4)CC3C2)ccc1-c1cc(C)c(=O)n(C)c1 (stereo not shown) [Example 19, 5-[2-ethyl-6-[2-[2-(5-oxa-2,8-diazaspiro[3.5]nonan-2-yl)pyrimidin-5-yl]-3,4,6,7,9,9a-hexahydro-1H-pyrazino[1,2-a]pyrazin-8-yl]-3-pyridyl]-1,3-dimethyl-pyridin-2-one]
